Like-named read-outs stand apart in the source and are kept apart here.
Target: T1, human Cav3.2 T-type Ca2+ channel (Homo sapiens, UniProt O95180)
T1 construct: expressed in transfected cells; host or cells: KJMGER8 cells (Namalwa cell-derived cell line)
Assay: Inhibitory effect for intracellular calcium response via Cav3.2 T-type Ca2+ channels (FLIPR Calcium 3 Assay Kit)
Format: cell-based

[1] = human Cav3.2-expressing KJMGER8 cells (Namalwa-derived), calcium response induced by 5 mmol/L CaCl2, 3 μmol/L mibefradil as reference, read-out: IC50 for the human Cav3.2 T-type Ca2+ current

T1 sequence (O95180 whole entry): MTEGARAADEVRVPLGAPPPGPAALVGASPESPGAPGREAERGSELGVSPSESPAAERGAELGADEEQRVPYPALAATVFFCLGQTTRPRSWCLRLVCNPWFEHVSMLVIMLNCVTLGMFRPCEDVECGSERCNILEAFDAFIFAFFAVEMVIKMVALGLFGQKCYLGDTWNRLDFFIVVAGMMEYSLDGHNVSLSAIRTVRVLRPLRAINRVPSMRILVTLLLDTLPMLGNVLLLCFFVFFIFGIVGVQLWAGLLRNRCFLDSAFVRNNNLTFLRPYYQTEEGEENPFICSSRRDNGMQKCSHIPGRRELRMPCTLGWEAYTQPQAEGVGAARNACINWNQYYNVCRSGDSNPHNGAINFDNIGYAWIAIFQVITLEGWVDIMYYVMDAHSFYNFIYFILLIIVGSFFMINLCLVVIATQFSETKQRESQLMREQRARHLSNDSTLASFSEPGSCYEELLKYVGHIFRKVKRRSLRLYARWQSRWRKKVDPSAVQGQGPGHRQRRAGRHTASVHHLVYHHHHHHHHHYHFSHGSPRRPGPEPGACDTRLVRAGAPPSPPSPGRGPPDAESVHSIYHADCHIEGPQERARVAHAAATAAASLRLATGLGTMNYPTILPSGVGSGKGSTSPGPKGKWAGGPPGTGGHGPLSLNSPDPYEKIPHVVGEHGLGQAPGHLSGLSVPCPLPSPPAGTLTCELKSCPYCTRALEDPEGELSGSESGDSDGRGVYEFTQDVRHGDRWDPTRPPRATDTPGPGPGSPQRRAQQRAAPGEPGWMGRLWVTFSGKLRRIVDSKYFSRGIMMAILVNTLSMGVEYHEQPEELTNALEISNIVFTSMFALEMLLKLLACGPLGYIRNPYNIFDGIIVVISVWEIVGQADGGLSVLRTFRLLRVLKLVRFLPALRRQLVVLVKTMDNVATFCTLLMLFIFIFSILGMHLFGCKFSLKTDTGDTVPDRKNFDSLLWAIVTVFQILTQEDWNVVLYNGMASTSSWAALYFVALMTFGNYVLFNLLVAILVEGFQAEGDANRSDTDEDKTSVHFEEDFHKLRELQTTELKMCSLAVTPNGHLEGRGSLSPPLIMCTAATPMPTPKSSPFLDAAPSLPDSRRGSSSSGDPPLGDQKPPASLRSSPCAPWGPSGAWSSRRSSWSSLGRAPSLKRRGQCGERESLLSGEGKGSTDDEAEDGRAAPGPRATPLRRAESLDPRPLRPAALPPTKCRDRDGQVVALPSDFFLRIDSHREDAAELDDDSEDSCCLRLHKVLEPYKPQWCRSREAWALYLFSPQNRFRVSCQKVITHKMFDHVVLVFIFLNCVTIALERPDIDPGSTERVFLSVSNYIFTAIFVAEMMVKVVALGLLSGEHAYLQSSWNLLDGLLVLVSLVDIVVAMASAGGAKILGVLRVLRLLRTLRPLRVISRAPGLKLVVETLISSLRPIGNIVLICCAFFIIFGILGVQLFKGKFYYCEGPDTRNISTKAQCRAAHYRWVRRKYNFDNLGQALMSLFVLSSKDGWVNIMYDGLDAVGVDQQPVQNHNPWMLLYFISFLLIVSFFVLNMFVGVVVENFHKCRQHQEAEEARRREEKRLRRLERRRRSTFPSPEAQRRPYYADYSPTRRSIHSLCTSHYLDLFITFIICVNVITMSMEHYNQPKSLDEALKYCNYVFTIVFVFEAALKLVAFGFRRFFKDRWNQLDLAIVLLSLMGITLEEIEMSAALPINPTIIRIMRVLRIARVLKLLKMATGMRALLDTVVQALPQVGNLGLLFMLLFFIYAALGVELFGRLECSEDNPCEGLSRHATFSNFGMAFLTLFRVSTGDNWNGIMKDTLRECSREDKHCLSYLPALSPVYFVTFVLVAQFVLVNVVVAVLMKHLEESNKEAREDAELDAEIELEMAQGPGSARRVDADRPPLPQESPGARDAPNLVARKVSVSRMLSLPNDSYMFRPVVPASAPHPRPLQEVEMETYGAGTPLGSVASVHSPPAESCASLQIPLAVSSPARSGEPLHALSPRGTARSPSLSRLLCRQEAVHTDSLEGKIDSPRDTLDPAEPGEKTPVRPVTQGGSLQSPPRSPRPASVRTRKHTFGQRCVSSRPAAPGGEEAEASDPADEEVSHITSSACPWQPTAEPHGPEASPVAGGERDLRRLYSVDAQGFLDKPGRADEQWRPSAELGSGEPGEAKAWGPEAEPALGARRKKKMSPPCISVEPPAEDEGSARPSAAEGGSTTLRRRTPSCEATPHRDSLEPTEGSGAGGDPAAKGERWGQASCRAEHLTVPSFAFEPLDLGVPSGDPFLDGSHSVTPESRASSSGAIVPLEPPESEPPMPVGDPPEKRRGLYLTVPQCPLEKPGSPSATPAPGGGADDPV

Structure (SMILES) | IC50 [nM] | IC50 [1] [nM]
N#Cc1cc(C(=O)N[C@H]2CC[C@H](O)CC2)cc2nc(C(F)(F)F)c(CC3CCC(F)(F)CC3)n12 [Compound 56, 5-Cyano-3-[(4,4-difluorocyclohexyl)methyl]-N-[(1R,4R)-4-hydroxycyclohexyl]-2-(trifluoromethyl)imidazo[1,2-a]pyridine-7-carboxamide] | ≤ 100 | –
CC(C)(C)C(=O)CNC(=O)c1cc(C#N)n2c(CC3CCC(F)(F)CC3)c(C(F)(F)F)nc2c1 [Compound 160, 5-Cyano-3-[(4,4-difluorocyclohexyl)methyl]-N-(3,3-dimethyl-2-oxobutyl)-2-(trifluoromethyl)imidazo[1,2-a]pyridine-7-carboxamide] | ≤ 100 | –
Cc1cc(C(=O)NC2CCOCC2)cc2nc(C(F)(F)F)c(Cc3ccccc3)n12 [Compound 206, 3-Benzyl-5-methyl-N-(tetrahydro-2H-pyran-4-yl)-2-(trifluoromethyl)imidazo[1,2-a]pyridine-7-carboxamide] | ≤ 100 | –
COc1c(C(=O)NC2CCOCC2)cc(C)n2c(CC3CCC(F)(F)CC3)c(C(F)(F)F)nc12 [Compound 133, 3-[(4,4-Difluorocyclohexyl)methyl]-8-methoxy-5-methyl-N-(tetrahydro-2H-pyran-4-yl)-2-(trifluoromethyl)imidazo[1,2-a]pyridine-7-carboxamide] | ≤ 100 | –
Cc1ccc(Cc2c(C(F)(F)F)nc3cc(C(=O)NC4CCOCC4)cc(C)n23)cc1 [Compound 207, 5-Methyl-3-(4-methylbenzyl)-N-(tetrahydro-2H-pyran-4-yl)-2-(trifluoromethyl)imidazo[1,2-a]pyridine-7-carboxamide] | ≤ 100 | –
CCC(F)(F)c1nc2cc(C(=O)NC3CCOCC3)cc(C)n2c1CC1CCC(F)(F)CC1 [Compound 27, 3-[(4,4-Difluorocyclohexyl)methyl]-2-(1,1-difluoropropyl)-5-methyl-N-(tetrahydro-2H-pyran-4-yl)imidazo[1,2-a]pyridine-7-carboxamide] | ≤ 100 | –
N#Cc1cc(C(=O)NCC2(O)CC2)cc2nc(C(F)(F)F)c(CC3CCC(F)(F)CC3)n12 [Compound 69, 5-Cyano-3-[(4,4-difluorocyclohexyl)methyl]-N-[(1-hydroxycyclopropyl)methyl]-2-(trifluoromethyl)imidazo[1,2-a]pyridine-7-carboxamide] | ≤ 100 | –
Cc1cc(C(O)c2nc3ccccc3n2C)cc2nc(C(F)(F)F)c(CC3CCC(F)(F)CC3)n12 (stereo not drawn) [Compound 120, {3-[(4,4-Difluorocyclohexyl)methyl]-5-methyl-2-(trifluoromethyl)imidazo[1,2-a]pyridin-7-yl}(1-methyl-1H-benzo[d]imidazol-2-yl)methanol] | – | ≤ 100
O=C(NCC1(O)CCOCC1)c1cc(Cl)n2c(CC3CCC(F)(F)CC3)c(C(F)(F)F)nc2c1 [Compound 86, 5-Chloro-3-[(4,4-difluorocyclohexyl)methyl]-N-[(4-hydroxytetrahydro-2H-pyran-4-yl)methyl]-2-(trifluoromethyl)imidazo[1,2-a]pyridine-7-carboxamide] | ≤ 100 | –
O=C(NCC1(O)CC1)c1cc(Cl)n2c(CC3CCC(F)(F)CC3)c(C(F)(F)F)nc2c1 [Compound 125, 5-Chloro-3-[(4,4-difluorocyclohexyl)methyl]-N-[(1-hydroxycyclopropyl)methyl]-2-(trifluoromethyl)imidazo[1,2-a]pyridine-7-carboxamide] | ≤ 100 | –
N#Cc1cc(C(=O)NC2COC2)cc2nc(C(F)(F)F)c(CC3CCC(F)(F)CC3)n12 [Compound 60] | – | ≤ 100
Cc1cc(Cc2nc3ccccc3[nH]2)cc2nc(C(F)(F)F)c(CC3CCC(F)(F)CC3)n12 [Compound 87, 2-({3-[(4,4-Difluorocyclohexyl)methyl]-5-methyl-2-(trifluoromethyl)imidazo[1,2-a]pyridin-7-yl}methyl)-1H-benzo[d]imidazol] | – | ≤ 100
Cc1cc(C(=O)NC2(C3CCOCC3)CC2)cc2nc(C(F)(F)F)c(CC3CCC(F)(F)CC3)n12 [Compound 75, 3-[(4,4-Difluorocyclohexyl)methyl]-5-methyl-N-[1-(tetrahydro-2H-pyran-4-yl)cyclopropyl]-2-(trifluoromethyl)imidazo[1,2-a]pyridine-7-carboxamide] | – | ≤ 100
CCOC(=O)CNC(=O)c1cc(C#N)n2c(CC3CCC(F)(F)CC3)c(C(F)(F)F)nc2c1 [Compound 139, Ethyl 2-{5-cyano-3-[(4,4-difluorocyclohexyl)methyl]-2-(trifluoromethyl)imidazo[1,2-a]pyridine-7-carboxamide}acetate] | ≤ 100 | –
[2H]C([2H])([2H])OC(C)(C)CNC(=O)c1cc(CO)n2c(CC3CCC(F)(F)CC3)c(C(C)(F)F)nc2c1 [Compound 192, 3-[(4,4-Difluorocyclohexyl)methyl]-2-(1,1-difluoroethyl)-5-(hydroxymethyl)-N-(2-methoxy-d3-2-methylpropyl)imidazo[1,2-a]pyridine-7-carboxamide] | ≤ 100 | –
CCOC(=O)C1(NC(=O)c2cc(Cl)n3c(CC4CCC(F)(F)CC4)c(C(F)(F)F)nc3c2)CC1 [Compound 135, Ethyl 1-{5-chloro-3-[(4,4-difluorocyclohexyl)methyl]-2-(trifluoromethyl)imidazo[1,2-a]pyridine-7-carboxamide}cyclopropanecarboxylate] | ≤ 100 | –
O=C(NCC(=O)N1CC(F)(F)C1)c1cc(Cl)n2c(CC3CCC(F)(F)CC3)c(C(F)(F)F)nc2c1 [Compound 172, 5-Chloro-N-[2-(3,3-difluoroazetidin-1-yl)-2-oxoethyl]-3-[(4,4-difluorocyclohexyl)methyl]-2-(trifluoromethyl)imidazo[1,2-a]pyridine-7-carboxamide] | ≤ 100 | –
Cc1cc(-c2nc3c([nH]2)CCCC3)cc2nc(C(F)(F)F)c(CC3CCC(F)(F)CC3)n12 [Compound 73, 2-{3-[(4,4-Difluorocyclohexyl)methyl]-5-methyl-2-(trifluoromethyl)imidazo[1,2-a]pyridin-7-yl}-4,5,6,7-tetrahydro-1H-benzo[d]imidazol] | ≤ 100 | –
Cc1cc(CC(=O)Nc2ccccc2N)cc2nc(C(F)(F)F)c(CC3CCC(F)(F)CC3)n12 [Compound 85, N-(2-Aminophenyl)-2-{3-[(4,4-difluorocyclohexyl)methyl]-5-methyl-2-(trifluoromethyl)imidazo[1,2-a]pyridin-7-yl}acetamide] | – | ≤ 100
Cc1cc(C(=O)NC2CC3(COC3)C2)cc2nc(C(C)(F)F)c(CC3CCC(F)(F)CC3)n12 [Compound 136, 3-[(4,4-Difluorocyclohexyl)methyl]-2-(1,1-difluoroethyl)-5-methyl-N-(2-oxaspiro[3.3]heptan-6-yl)imidazo[1,2-a]pyridine-7-carboxamide] | ≤ 100 | –
N#Cc1cc(C(=O)NCC2CCOC2)cc2nc(C(F)(F)F)c(CC3CCC(F)(F)CC3)n12 (stereo not drawn) [Compound 3, 5-Cyano-3-[(4,4-difluorocyclohexyl)methyl]-N-[(tetrahydrofuran-3-yl)methyl]-2-(trifluoromethyl)imidazo[1,2-a]pyridine-7-carboxamide] | ≤ 100 | –
CC(F)(F)c1nc2cc(C(=O)NCC3CC3)c(Cl)cn2c1CC1CCC(F)(F)CC1 [Compound 21, 6-Chloro-N-(cyclopropylmethyl)-3-[(4,4-difluorocyclohexyl)methyl]-2-(1,1-difluoroethyl)imidazo[1,2-a]pyridine-7-carboxamide] | ≤ 100 | –
CCCCc1c(C(C)C)nc2cc(C(=O)Nc3ccccc3)ccn12 [Compound 144, 3-Butyl-2-isopropyl-N-phenylimidazo[1,2-a]pyridine-7-carboxamide] | ≤ 100 | –
N#Cc1cc(C(=O)NC2(CO)CCOCC2)cc2nc(C(F)(F)F)c(CC3CCC(F)(F)CC3)n12 [Compound 58, 5-Cyano-3-[(4,4-difluorocyclohexyl)methyl]-N-[4-(hydroxymethyl)tetrahydro-2H-pyran-4-yl]-2-(trifluoromethyl)imidazo[1,2-a]pyridine-7-carboxamide] | ≤ 100 | –
O=C(NC1CC(CO)(CO)C1)c1cc(Cl)n2c(CC3CCC(F)(F)CC3)c(C(F)(F)F)nc2c1 [Compound 95, N-[3,3-Bis(hydroxymethyl)cyclobutyl]-5-chloro-3-[(4,4-difluorocyclohexyl)methyl]-2-(trifluoromethyl)imidazo[1,2-a]pyridine-7-carboxamide] | ≤ 100 | –
O=C(NCCCn1ccnc1)c1cc(Cl)n2c(CC3CCC(F)(F)CC3)c(C(F)(F)F)nc2c1 [Compound 100, N-[3-(1H-Imidazol-1-yl)propyl]-5-chloro-3-[(4,4-difluorocyclohexyl)methyl]-2-(trifluoromethyl)imidazo[1,2-a]pyridine-7-carboxamide] | ≤ 100 | –
Cc1cc(C(=O)C(O)C2CCOCC2)cc2nc(C(F)(F)F)c(CC3CCC(F)(F)CC3)n12 (stereo not drawn) [Compound 83, 1-{3-[(4,4-Difluorocyclohexyl)methyl]-5-methyl-2-(trifluoromethyl)imidazo[1,2-a]pyridin-7-yl}-2-hydroxy-2-(tetrahydro-2H-pyran-4-yl)ethanone] | – | ≤ 100
CC1(C)CC(NC(=O)c2cc(C#N)n3c(CC4CCC(F)(F)CC4)c(C(F)(F)F)nc3c2)CCO1 (stereo not drawn) [Compound 57, 5-Cyano-3-[(4,4-difluorocyclohexyl)methyl]-N-(2,2-dimethyltetrahydro-2H-pyran-4-yl)-2-(trifluoromethyl)imidazo[1,2-a]pyridine-7-carboxamide] | ≤ 100 | –
CC1(CNC(=O)c2cc(C#N)n3c(CC4CCC(F)(F)CC4)c(C(F)(F)F)nc3c2)CCCO1 (stereo not drawn) [Compound 2, 5-Cyano-3-[(4,4-difluorocyclohexyl)methyl]-N-[(2-methyltetrahydrofuran-2-yl)methyl]-2-(trifluoromethyl)imidazo[1,2-a]pyridine-7-carboxamide] | ≤ 100 | –
[2H]C([2H])([2H])OC(C)(C)CNC(=O)c1cc(C#N)n2c(Cc3ccc(Cl)cc3)c(C(C)(F)F)nc2c1 [Compound 223, 3-(4-Chlorobenzyl)-5-cyano-2-(1,1-difluoroethyl)-N-(2-methoxy-d3-2-methylpropyl)imidazo[1,2-a]pyridine-7-carboxamide] | ≤ 100 | –
